Results taken from a melting point compilation (Tetko et al.; mined from patent text by program, amines drawn as free bases though some values may be those of a salt).

Row | SMILES | melting point [°C]
1 | CC1(C)C=C(c2cccnc2)c2cc(C#N)ccc2O1 | 98 to 99
2 | CCOc1cc2ncc(C#N)c(Nc3ccc4c(C)cc(=O)oc4c3)c2cc1OCC | 282 to 284
3 | CCOC(=O)COc1ccc(NC(=O)NC(=O)c2ccc(C#N)cc2)cc1 | 200 to 203
4 | Cc1cc([N+](=O)[O-])c(C)c2c1OC(C)(C)C2=O | 124 to 126
5 | O=C1C(Cl)=C(N2CCN(C(=O)Nc3ccccc3Cl)CC2)C(=O)c2ccccc21 | 160 to 163
6 | Fc1cccc(F)c1C1=NC(c2ccc(I)cc2)CO1 (centres undefined) | 105 to 106
7 | CC1(C)OC(=O)C(OC2CCCC2)=C1c1ccc(S(C)(=O)=O)cc1 | 121 to 122
8 | N#Cc1ccc(C(=O)NNc2c(Cl)cc(C(F)(F)F)cc2Cl)cc1 | 185 to 186
9 | CC(C)CC(C=O)NC(=O)C(Cc1c[nH]cn1)NC(=O)C(CC=Cc1ccccc1)Cc1cccc2ccccc12 (centres undefined) | 92 to 96
10 | N#CCCNC(=O)c1cccc(-c2cccc3nc(C(O)c4cccc(C(F)(F)F)c4)cn23)c1 (centres undefined) | 223 to 224
11 | CC(C)N(O)C(=O)c1c(Cl)cccc1[Si](C)(C)C | 175 to 179
12 | COc1nc2cc(SCCCc3cc4c(cc3O)CC(CCc3ccccc3)O4)ccc2cc1C(=O)O (centres undefined) | 157 to 161
13 | Cc1ccc(C)c(OCCCC(C)(C)C(=O)Nc2ccc(F)cc2F)c1 | 79 to 80
14 | CC(=O)NC(C)=NC(=Nc1ccccc1)N1CCOCC1 | 146 to 149
15 | CC(c1oc2ccc(F)cc2c(=O)c1-c1cccc(F)c1)n1nc(-c2cccc(O)c2)c2c(N)ncnc21 (centres undefined) | 193 to 196
16 | CC(C)n1nc(-c2sc(NC(=O)c3ccc(I)cc3)nc2-c2ccccc2)ccc1=O | 253 to 254
17 | CC(C)(C#N)c1c(Cl)cc(-n2nc(C(=O)O)c(=O)[nH]c2=O)cc1Cl | 157
18 | CC(C)(C)OC(=O)N1CCn2c(c(C(N)=O)c(C#N)c2C2CCN(S(C)(=O)=O)CC2)C1 | 220
19 | CSc1nnc(C(N)(c2ccc(Cl)cc2)c2ccc3nc(C)cc(-c4cccc(Cl)c4)c3c2)n1C (centres undefined) | 128
20 | CC(=O)c1[nH]c(-c2ccc(O)cc2)nc1C | 300
21 | COc1ccc2c(c1OC)C(=O)c1ccccc1-2 | 110 to 111
22 | O=CNC(=O)N1CC(Oc2cccc(C(F)(F)F)c2)C1 | 118 to 119
23 | O=C1Cc2cc(Cl)ccc2Oc2ccc(F)cc21 | 91 to 92
24 | CC12CCC(C(=O)O)=CC1=CCC1C2CCC2(C)C(C(=O)c3ccc(F)cc3)CCC12 (centres undefined) | 255
25 | Cc1ccc2c(c1)C=Cc1cc(C)ccc1C2c1cn(Cc2nc(C(=O)O)cs2)c(=O)[nH]c1=S | 200 to 205

Row | SMILES | melting point [°C]
26 | N=C(Nc1ccc(NC(=O)CNCc2ccccc2)cc1)c1cccs1 | 161 to 163
27 | O=C(N[C@@H](Cc1ccccc1)[C@@H](O)[C@H](O)[C@H](Cc1ccccc1)NC(=O)OCc1cccnc1)OCc1cccnc1 | 180 to 186
28 | CN(C)CCCCC(=O)NC(Cc1c[nH]c2ccccc12)C(=O)CCc1cc(C(F)(F)F)cc(C(F)(F)F)c1 (centres undefined) | 140
29 | COCN1c2cc(C(=O)OC)ccc2Sc2nccnc21 | 151 to 152
30 | O=C(O)Cc1ccc(O)c(OCc2ccccc2)c1 | 130 to 133
31 | O=C(Nc1ccccc1)OCC(=O)c1ccccc1 | 146 to 148
32 | COc1ccc2cc(C(=O)Oc3ccc(Cl)cn3)c(=O)oc2c1 | 248 to 250
33 | CCOC(=O)C1(C(C)C)OC2(O)C3CCCN3C(=O)C(Cc3ccccc3)N2C1=O (centres undefined) | 152 to 154
34 | CCn1ncc2c(NCc3ccc(OC)cc3)c3cc(OC)ccc3nc21 | 263 to 265
35 | Cc1c(Cc2ccc(C(C)C)cc2)c2c(c(C)c1NC(=O)CC(C)(C)C)C(c1ccccc1)CO2 (centres undefined) | 137 to 141
36 | CCOc1ccc(S(=O)(=O)N2CCN(C)CC2)cc1C(=O)OC | 110 to 111
37 | Cc1cc2oc(C#N)cc(=O)c2c(C)c1Cl | 142 to 143
38 | O=C(c1cc(-n2cnnn2)ccc1O)N1CCC(CCO)(c2ccccc2)C1 (centres undefined) | 86 to 96
39 | Nc1cccc2c1OCCO2 | 134 to 135
40 | Cc1cc2c(s1)S(=O)(=O)NC2=O | 231
41 | COc1cc(Nc2c(C#N)cnc3cc(-c4cccc(CCN5CCOCC5)c4)ccc23)c(Cl)cc1Cl | 146 to 148
42 | CC(C)(C)NCC(O)c1cc(Br)c(N)c(C(N)=O)c1 (centres undefined) | 135 to 145
43 | CC(C)CC(=O)Nc1cccc(-c2ccnc3c(C(=O)c4ccsc4)cnn23)c1 | 137 to 139
44 | CCOC(=O)Nc1ccc2oc(Cc3ccccc3)cc2c1 | 95
45 | c1ccc(C2=NNC(c3ccccc3)C2)cc1 (centres undefined) | 194 to 199
46 | CCC(=O)C1(Nc2ccccc2)CCN(CCc2cccs2)CC1 | 127
47 | CCOc1cc(OCC)c2c(=O)c(OCC)c(-c3ccccc3)oc2c1 | 111 to 114
48 | COc1ccc(S(=O)(=O)N(Cc2ccccc2)c2c(C(=O)NO)cnc3c2c(C)nn3C)cc1 | 184 to 186
49 | O=C(O)CCCCCCn1c(-c2ccccc2)nc(-c2ccccc2)c1-c1ccccc1 | 149 to 150
50 | O=C(NN1CCCCC1)c1nc(-c2ccc(Cl)cc2Cl)n(-c2ccc(Cl)cc2)c1CF | 162 to 163

Row | SMILES | melting point [°C]
51 | CCN(CC)CCSc1ccc(/C=C/C(=O)OC)cc1[N+](=O)[O-] | 57.4 to 59.1
52 | C[C@H](N=C(C(N)=O)C(C)(C)C)c1ccccc1 | 100 to 101
53 | CC1SC(=O)NN=C1c1cccc([N+](=O)[O-])c1 (centres undefined) | 169 to 172
54 | Cn1nnnc1SCC1(C)SC2C(NC(=O)Cn3cnnn3)C(=O)N2C1C(=O)O (centres undefined) | 152 to 154
55 | CCN(CC)CC(=O)Nc1ccc2c(c1)C(=O)c1cc(NC(=O)CN(CC)CC)ccc1C2=O | 241
56 | CN(CCc1ccccn1)C(=O)CCSc1cc(C(C)(C)C)c(O)c(C(C)(C)C)c1 | 82 to 84
57 | O=c1ccn(C(OC2CCCCO2)c2ccccn2)cc1 (centres undefined) | 173 to 176
58 | C=C(C)C(=O)OCc1c(Br)c(Br)c(Br)c(Br)c1COC(=O)C(=C)C | 64 to 66
59 | COCCOc1c(C)c(N2CCN(c3ccc(C)cc3)CC2)c(C)c2c1OC(C)(C)C2 | 118 to 120
60 | CC(=O)Nc1ccc(S(=O)(=O)CC(=O)C23CC4CC(CC(C4)C2)C3)cc1 | 151 to 152
61 | N#Cc1ccc(NC(=O)c2cc3ccccc3cc2O)c(OC(F)(F)F)c1 | 248
62 | O=C(O)C1=Cc2cc(-c3ccc(Br)cc3)ccc2OC1C(F)(F)F (centres undefined) | 215 to 216
63 | OCc1c(CO)c(-c2ccc(F)c(F)c2)n2c1Cc1ccccc1C2 | 145 to 146
64 | CN(C(=O)CC(CCN1CCC(Cc2ccccc2)CC1)c1ccc(Cl)c(Cl)c1)c1ccc(Cl)cc1 (centres undefined) | 67 to 72
65 | Nc1nccc(-c2c[nH]c3nccc(OC4CCCCC4)c23)n1 | > 210
66 | CCCC(=O)Nc1n[nH]c2c(F)c(C(F)(F)F)ccc12 | 220 to 222
67 | Cc1nc(N2CCN(Cc3ccc(F)cc3)C2=O)sc1C(=O)NCc1csc(C(C)C)n1 | 170 to 172
68 | COCCOCc1nn2c(-c3ccc(OC)cc3)nnc2c2ccccc12 | 129 to 131
69 | O=C(NCCOc1cc(-c2ccccc2)on1)c1ccccc1 | 129 to 130
70 | OC1CCC2(CC1)Cc1ccccc1C2 | 76 to 78
71 | CC1(C)CC(NC(=O)CCC(=O)O)CC(C)(C)N1OC1CCCCC1 | 136 to 138
72 | CC(C)(C)[Si](C)(C)O[C@H]1CCC[C@@]2(C)[C@H]1CC[C@@H]2[C@]1(C)CC(=O)CO1 | 52
73 | CC(=O)Nc1ccc(C#CCCN2CC=C(c3ccccc3)CC2)cc1 | 172 to 173
74 | CC(=O)NCc1ccc(CCN2CCC(n3ccc4ccccc43)CC2)cc1 | 133 to 134
75 | CCOC(=O)Cc1ccc(-c2nc(COc3cc(C(=O)OC)on3)c(C)o2)cc1 | 124 to 126

Row | SMILES | melting point [°C]
76 | C#CCOCC(C)(COCC#C)NC(=O)C(Oc1ccc2ncc(C#C)cc2c1)SC (centres undefined) | 95 to 100
77 | COc1cccc(COC(=O)c2ncn3c2[C@@H]2CCN2C(=O)c2c(Cl)cccc2-3)c1 | 126 to 127
78 | COc1ccc2c(c1)CCC1CCN=C21 (centres undefined) | 102 to 104
79 | N#Cc1cccc(-c2nc(N3CCC(CC(=O)O)CC3)cc3cccnc23)c1 | 178 to 180
80 | O=S(=O)(Nc1cccc(Nc2nc(NC3CCCC3)c3nc[nH]c3n2)c1)C(F)(F)F | 243 to 246
81 | COc1cccc2cc(-c3ccc(OCCN4CCCC4)cc3)sc12 | 88 to 90
82 | Cc1ccc(N2CCc3cc(Br)ccc32)c([N+](=O)[O-])c1 | 105 to 107
83 | CCc1cc(Oc2ccc([N+](=O)[O-])cc2C(F)(F)F)nn1C(=O)NC | 97 to 100
84 | O=C(O)C(=O)Nc1cccc(NC(=O)C(=O)O)c1Cl | > 320
85 | Cc1nnc2n1-c1ccc([N+](=O)[O-])cc1C(c1ccccc1Cl)=NC2(C)C | 283
86 | CC1(C)CC(OC(=O)CCCCCCCCC(=O)OC2CC(C)(C)N(O)C(C)(C)C2)CC(C)(C)N1O | 101
87 | CC(C)C(N)CCCCCCCCC(C)(C)C(=O)O (centres undefined) | 156 to 159
88 | CCc1ccc(Nc2nc3cc(NC(=O)c4ccc(CC)cc4)ccc3o2)cc1 | > 250
89 | COc1ccc(C(=O)C#CCO)cc1 | 84 to 85
90 | CCCCCCCCCCCC(=O)NCCO | 80 to 84
91 | O=C(O)c1ccc(C=Cc2cc3ccccc3s2)s1 | 236 to 237
92 | C=CCNS(=O)(=O)c1ccc(Br)cc1 | 63 to 65
93 | N#CC(=Cc1ccc(O)c(O)c1)C(=O)Nc1ccccc1 | 258
94 | CC1=C(C#N)C(=C(C#N)C#N)OC1(C)c1ccc(Cl)cc1Cl (centres undefined) | 239 to 240
95 | N#Cc1c[nH]cc1-c1ccc(Cl)cc1C(=O)c1ccccc1 | 175 to 177
96 | Cc1cccc2ncc(C(=O)NC3CCCCC3)c(=O)n12 | 174 to 176
97 | COC(=O)COc1ccccc1Oc1cc(NC(=O)CC(O)(O)C(F)(F)F)c(F)cc1Cl | 165
98 | O=C(O)COc1ccc(C(=C2SCCCS2)c2ccccc2)cc1 | 176 to 177
99 | O=C1CCCN1C(=O)Oc1ccc(Cl)cc1 | 99 to 100
